The text below walks through data of patent US10689361B2, “Quinoline derivative and use thereof” (priority 2016, dated 2020).

The target of series [1] is PDGFRα (Homo sapiens, UniProt P16234). Put plainly: Caliper Mobility Shift Assay, kinase inhibition. The settings on record: read-out: Kinase inhibitory activity (IC50, nM) PDGFRα. The format is biochemical.
The target of series [2] is VEGFR1 (Homo sapiens, UniProt P17948). Put plainly: Caliper Mobility Shift Assay, kinase inhibition. The format is biochemical. The settings on record: read-out: Kinase inhibitory activity (IC50, nM) VEGFR1.
Series [3] addresses T1, FLT3 (Homo sapiens, UniProt P36888).
T1 sequence (P36888 27-993): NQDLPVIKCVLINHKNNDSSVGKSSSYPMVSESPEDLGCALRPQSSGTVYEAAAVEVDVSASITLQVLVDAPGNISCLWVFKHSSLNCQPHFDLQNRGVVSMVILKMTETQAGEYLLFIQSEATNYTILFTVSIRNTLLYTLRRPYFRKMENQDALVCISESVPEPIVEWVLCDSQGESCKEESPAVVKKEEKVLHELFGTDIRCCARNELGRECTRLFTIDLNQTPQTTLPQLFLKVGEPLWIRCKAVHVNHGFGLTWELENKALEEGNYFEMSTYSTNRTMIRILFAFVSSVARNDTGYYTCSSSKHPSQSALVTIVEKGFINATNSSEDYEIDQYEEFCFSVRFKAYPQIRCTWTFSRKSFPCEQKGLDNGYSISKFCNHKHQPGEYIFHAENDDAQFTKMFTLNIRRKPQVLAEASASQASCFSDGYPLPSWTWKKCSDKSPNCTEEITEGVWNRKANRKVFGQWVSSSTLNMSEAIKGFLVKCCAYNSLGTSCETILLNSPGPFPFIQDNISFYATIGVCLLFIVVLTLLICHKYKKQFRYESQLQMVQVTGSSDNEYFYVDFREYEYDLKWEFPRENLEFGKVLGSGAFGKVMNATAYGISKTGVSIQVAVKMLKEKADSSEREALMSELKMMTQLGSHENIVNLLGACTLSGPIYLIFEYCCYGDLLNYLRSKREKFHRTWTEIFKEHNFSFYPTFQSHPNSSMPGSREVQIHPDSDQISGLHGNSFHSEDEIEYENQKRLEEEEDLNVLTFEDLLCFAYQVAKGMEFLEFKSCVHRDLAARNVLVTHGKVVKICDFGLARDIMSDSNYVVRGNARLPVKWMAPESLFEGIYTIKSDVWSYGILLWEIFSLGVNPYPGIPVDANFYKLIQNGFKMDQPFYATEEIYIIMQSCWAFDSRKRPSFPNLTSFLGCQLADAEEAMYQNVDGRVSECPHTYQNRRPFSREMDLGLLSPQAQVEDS
Kind of series: Caliper Mobility Shift Assay, kinase inhibition. The format is biochemical. The settings on record: read-out: Kinase inhibitory activity (IC50, nM) FLT3.

Series [4] deals with PDGFRβ (Homo sapiens, UniProt P09619). Put plainly: Caliper Mobility Shift Assay, kinase inhibition. The format is biochemical. To be noted: read-out: Kinase inhibitory activity (IC50, nM) PDGFRβ.
Series [5] addresses FGFR1 (Homo sapiens, UniProt P11362). Kind of series: Caliper Mobility Shift Assay, kinase inhibition. The series is classed as biochemical. To be noted: read-out: Kinase inhibitory activity (IC50, nM) FGFR1.
The target of series [6] is VEGFR3 (Homo sapiens, UniProt P35916). Kind of series: Caliper Mobility Shift Assay, kinase inhibition. The format is biochemical. To be noted: read-out: Kinase inhibitory activity (IC50, nM) VEGFR3.
Series [7] can be described thus: Pharmacokinetic property evaluation test in CD-1 mice, intravenous. The format is in vivo. To be noted: both sexes, mouse, plasma, intravenous injection, 3 mg/kg, single administration, non-compartment model; for half-life: read-out: Terminal t1/2 (converted); for Vd: read-out: Vss. The procedure:
Experimental animals: CD-1 mice, males and females; weight: 20-25 g;
[…] Route of administration: intravenous injection. […] Dosage: 3 mg/kg.
Sample collection: Blood was collected at the following time points: 5 min, 15 min, 30 min, 1 hr, 2 hr, 4 hr, 8 hr, and 24 hr after administration.
Sample analysis: The collected samples were tested using the LC-MS/MS method. The instrument model was API4000.
Pharmacokinetic data analysis: The obtained plasma concentration data were fitted and calculated according to the non-compartment model using WinNolin, and some results are summarized in Table 2.

Series [8] addresses VEGFR2 (Homo sapiens, UniProt P35968). Kind of series: Caliper Mobility Shift Assay, kinase inhibition. The series is classed as biochemical. The settings on record: read-out: Kinase inhibitory activity (IC50, nM) VEGFR2.
In series [9] the target is RET (Homo sapiens, UniProt P07949). Put plainly: Caliper Mobility Shift Assay, kinase inhibition. The format is biochemical. To be noted: read-out: Kinase inhibitory activity (IC50, nM) RET.
Series [10] deals with IGF1R (Homo sapiens, UniProt P08069). Put plainly: Caliper Mobility Shift Assay, kinase inhibition. The format is biochemical. To be noted: read-out: Kinase inhibitory activity (IC50, nM) IGF1R. Here is the method: (§1) The semi-inhibitory concentration IC50 (the concentration of the compound required to inhibit the enzymatic activity to 50%) of a compound was measured by mixing a fixed enzyme with a specific substrate and the test compound of different concentrations. The test method used was Caliper Mobility Shift Assay, the kinases tested were VEGFR1, VEGFR2, VEGFR3, FLT3, PDGFRα, PDGFRβ, FGFR1, RET, EGFR and IGF1R, and the standard reference compound used was staurosporine.

In series [11] the target is EGFR (Homo sapiens, UniProt P00533). Put plainly: Caliper Mobility Shift Assay, kinase inhibition. To be noted: read-out: Kinase inhibitory activity (IC50, nM) EGFR. The format is biochemical. Here is the method: as §1

The term IC50 denotes the concentration that gives 50% inhibition. One may read the AUC(0-t) as the area under the concentration-time curve up to a stated or last time point. One may read the MRT inf as the average time that molecules of a dose stay in the body. In general, clearance refers to the volume of plasma or blood freed of the substance per unit of time. A higher clearance goes with a high capacity for elimination.

Some results are limits rather than exact numbers.

Sequence of VEGFR1 (P17948 27-1338, species assumed): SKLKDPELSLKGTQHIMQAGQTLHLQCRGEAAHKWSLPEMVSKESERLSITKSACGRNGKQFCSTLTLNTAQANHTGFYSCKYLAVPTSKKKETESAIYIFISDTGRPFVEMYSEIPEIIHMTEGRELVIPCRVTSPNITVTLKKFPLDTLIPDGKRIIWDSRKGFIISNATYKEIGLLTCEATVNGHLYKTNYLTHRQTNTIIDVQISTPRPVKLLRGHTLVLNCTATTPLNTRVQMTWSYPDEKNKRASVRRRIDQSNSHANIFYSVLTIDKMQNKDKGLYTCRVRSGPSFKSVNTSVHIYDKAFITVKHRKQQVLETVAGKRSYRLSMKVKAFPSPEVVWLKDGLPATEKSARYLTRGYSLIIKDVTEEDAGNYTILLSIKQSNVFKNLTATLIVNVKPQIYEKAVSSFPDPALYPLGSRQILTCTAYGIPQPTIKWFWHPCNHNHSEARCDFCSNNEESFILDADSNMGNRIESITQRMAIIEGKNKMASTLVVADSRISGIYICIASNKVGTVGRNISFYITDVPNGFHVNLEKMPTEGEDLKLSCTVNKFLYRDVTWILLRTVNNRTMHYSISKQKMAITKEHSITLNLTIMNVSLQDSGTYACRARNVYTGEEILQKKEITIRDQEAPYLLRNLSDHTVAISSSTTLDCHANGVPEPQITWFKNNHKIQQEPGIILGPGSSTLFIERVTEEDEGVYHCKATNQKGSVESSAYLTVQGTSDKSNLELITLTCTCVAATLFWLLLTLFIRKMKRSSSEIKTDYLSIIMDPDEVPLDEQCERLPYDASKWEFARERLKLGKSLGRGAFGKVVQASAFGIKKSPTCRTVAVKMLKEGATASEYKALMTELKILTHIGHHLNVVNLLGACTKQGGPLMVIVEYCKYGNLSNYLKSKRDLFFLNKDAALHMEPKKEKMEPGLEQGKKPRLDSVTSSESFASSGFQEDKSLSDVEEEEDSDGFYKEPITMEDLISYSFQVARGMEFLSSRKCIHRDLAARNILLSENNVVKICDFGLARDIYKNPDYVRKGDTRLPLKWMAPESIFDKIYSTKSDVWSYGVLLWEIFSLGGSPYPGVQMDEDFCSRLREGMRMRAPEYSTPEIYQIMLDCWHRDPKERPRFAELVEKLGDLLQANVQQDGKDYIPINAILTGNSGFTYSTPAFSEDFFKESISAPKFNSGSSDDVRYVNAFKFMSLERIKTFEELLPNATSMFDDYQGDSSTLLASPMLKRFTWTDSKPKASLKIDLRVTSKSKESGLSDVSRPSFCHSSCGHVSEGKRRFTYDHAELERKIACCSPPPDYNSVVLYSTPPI
Sequence of RET (P07949 29-1114, species assumed): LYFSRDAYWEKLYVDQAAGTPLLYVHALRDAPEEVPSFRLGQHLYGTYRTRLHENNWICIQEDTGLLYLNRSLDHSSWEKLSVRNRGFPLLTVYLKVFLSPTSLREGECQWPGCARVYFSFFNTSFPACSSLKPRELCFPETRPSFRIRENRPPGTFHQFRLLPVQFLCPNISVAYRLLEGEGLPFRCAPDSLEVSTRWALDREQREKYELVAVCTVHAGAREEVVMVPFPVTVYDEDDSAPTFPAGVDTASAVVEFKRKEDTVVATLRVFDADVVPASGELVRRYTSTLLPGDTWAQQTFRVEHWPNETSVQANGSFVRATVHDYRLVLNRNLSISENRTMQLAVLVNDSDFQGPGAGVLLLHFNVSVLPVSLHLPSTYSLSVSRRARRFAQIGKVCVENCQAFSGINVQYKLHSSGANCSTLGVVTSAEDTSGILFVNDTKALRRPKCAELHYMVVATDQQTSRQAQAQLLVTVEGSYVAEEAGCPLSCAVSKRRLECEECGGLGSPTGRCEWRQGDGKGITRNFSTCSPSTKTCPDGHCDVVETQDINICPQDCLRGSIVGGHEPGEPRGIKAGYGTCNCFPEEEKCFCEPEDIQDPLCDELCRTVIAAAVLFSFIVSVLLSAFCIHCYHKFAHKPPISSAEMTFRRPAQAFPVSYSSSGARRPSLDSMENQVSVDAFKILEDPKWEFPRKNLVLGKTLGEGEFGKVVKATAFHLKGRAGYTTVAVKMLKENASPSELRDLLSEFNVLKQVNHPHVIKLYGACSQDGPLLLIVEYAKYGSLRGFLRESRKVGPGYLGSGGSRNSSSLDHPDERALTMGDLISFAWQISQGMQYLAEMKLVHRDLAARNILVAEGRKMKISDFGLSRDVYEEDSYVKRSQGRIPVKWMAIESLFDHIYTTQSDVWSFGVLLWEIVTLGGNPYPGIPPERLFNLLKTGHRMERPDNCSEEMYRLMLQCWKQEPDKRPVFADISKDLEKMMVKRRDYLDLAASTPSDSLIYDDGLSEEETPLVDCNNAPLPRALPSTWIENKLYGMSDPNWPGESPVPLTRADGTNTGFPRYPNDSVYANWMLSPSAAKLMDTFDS
Sequence of VEGFR3 (P35916 25-1363, species assumed): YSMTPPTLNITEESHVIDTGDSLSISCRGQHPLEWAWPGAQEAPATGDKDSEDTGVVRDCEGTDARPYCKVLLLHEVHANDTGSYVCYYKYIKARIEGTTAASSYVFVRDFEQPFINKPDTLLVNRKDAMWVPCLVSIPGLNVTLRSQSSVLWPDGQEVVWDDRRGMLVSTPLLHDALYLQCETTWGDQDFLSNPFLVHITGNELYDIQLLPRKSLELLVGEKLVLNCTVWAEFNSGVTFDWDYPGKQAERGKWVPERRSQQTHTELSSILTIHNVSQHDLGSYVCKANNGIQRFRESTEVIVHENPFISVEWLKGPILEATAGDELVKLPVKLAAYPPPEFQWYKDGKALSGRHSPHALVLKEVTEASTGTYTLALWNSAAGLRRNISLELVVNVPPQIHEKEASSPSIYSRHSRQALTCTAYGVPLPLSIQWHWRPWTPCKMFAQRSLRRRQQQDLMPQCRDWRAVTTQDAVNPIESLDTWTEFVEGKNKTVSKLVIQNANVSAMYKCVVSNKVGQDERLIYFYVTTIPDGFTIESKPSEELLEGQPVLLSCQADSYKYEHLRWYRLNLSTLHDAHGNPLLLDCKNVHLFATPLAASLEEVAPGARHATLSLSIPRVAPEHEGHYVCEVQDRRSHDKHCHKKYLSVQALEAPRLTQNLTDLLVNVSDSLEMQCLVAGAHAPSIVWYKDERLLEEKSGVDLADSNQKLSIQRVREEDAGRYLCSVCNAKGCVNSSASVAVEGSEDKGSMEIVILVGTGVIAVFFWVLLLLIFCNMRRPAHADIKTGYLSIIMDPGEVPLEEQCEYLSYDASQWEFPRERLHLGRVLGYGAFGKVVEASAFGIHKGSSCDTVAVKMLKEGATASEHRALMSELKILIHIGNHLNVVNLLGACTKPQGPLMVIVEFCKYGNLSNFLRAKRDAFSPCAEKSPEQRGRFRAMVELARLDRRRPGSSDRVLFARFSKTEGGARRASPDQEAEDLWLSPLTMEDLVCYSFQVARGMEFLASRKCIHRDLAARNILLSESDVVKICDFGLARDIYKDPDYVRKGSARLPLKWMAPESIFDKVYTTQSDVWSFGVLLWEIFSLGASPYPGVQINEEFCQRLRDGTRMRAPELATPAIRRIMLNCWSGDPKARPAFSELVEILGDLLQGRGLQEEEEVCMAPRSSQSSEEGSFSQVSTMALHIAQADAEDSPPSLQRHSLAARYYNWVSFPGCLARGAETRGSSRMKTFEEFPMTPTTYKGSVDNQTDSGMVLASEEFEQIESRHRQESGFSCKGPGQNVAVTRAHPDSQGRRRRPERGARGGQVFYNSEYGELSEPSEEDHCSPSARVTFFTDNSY
Sequence of IGF1R (P08069 31-1367, species assumed): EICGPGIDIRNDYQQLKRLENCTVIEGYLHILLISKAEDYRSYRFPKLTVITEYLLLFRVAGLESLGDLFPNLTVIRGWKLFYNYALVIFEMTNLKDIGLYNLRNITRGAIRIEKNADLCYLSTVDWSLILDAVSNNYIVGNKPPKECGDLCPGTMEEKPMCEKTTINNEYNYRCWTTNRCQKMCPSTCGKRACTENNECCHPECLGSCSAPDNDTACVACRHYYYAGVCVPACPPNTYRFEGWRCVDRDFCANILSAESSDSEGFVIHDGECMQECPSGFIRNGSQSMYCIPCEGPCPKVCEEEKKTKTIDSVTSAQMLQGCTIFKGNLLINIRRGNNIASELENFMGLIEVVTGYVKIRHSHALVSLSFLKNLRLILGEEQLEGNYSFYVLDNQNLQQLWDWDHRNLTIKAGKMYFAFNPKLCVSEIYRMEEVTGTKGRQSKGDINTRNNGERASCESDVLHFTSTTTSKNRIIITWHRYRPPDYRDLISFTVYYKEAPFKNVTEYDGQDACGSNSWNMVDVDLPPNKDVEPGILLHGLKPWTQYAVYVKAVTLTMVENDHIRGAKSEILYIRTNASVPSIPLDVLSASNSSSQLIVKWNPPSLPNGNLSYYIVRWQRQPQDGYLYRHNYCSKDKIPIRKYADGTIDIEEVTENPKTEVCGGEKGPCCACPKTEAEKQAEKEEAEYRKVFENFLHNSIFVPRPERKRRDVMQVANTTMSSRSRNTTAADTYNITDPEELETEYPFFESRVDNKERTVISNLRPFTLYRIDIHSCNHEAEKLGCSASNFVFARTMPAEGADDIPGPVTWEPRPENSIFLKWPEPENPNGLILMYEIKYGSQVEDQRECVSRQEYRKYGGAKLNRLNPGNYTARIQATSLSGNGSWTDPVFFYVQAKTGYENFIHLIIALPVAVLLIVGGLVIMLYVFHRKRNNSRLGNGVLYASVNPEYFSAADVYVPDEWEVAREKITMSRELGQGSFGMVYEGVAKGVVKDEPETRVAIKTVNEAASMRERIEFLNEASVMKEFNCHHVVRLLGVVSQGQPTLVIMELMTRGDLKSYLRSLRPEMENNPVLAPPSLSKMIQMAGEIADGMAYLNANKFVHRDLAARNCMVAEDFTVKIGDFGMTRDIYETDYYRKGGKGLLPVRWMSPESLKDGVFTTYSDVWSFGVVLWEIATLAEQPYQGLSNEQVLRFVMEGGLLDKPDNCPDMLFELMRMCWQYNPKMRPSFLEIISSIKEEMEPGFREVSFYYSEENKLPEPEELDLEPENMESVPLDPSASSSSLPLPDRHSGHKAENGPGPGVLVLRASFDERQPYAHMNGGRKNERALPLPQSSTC

As for `COc1cc2nccc(Oc3ccc(NC(=O)Nc4cnn(C)c4)cc3F)c2cc1C(N)=O` [Compound of Formula Ib], the IC50 in series [1] was 37 nM; in [2], 555 nM; in series [3] it was 890 nM; in [4], 165 nM; in [5], more than 1000 nM; in [6] it was 84 nM. Also, the concentration for half-maximal inhibition (IC50) was 3 nM in series [8], 290 nM in [9], more than 200000 nM in series [10] and more than 200000 nM in [11]. For the same molecule, the AUC(0-t) in [7] came out at 1.6 µg·h/mL. In series [7], this molecule returned an MRT inf of 49.2 min. In series [7], this molecule gave a clearance of 1.83 L/h/kg. Also, in series [7], the half-life was 134 min. The Vd in series [7] was determined as 1.48 L/kg.

Take `CNC(=O)c1cc2c(Oc3ccc(NC(=O)Nc4cnn(C)c4)cc3F)ccnc2cc1OC` [Compound of Formula Ia]: the IC50 in series [1] is 27 nM; in series [2], 381 nM; in [3], 576 nM; in [4], 110 nM; in [5], more than 1000 nM; in series [6], 56 nM. For the same molecule, the IC50 in [8] was 2.4 nM; in [9], 106 nM; in [10], more than 500000 nM; in series [11], more than 500000 nM. This molecule also came in with an AUC(0-t) in [7] of 2.04 µg·h/mL. This molecule also gave an MRT inf in series [7] of 20.4 min. The same molecule had a clearance in [7] of 1.51 L/h/kg. Also, in series [7], the half-life was 28.2 min. The Vd in [7] was found to be 0.525 L/kg.

For the molecule `COc1cc2nccc(Oc3ccc(NC(=O)Nc4cn[nH]c4)cc3F)c2cc1C(N)=O` [Compound of Formula Ic], the IC50 in series [1] is 42 nM; in series [2], 831 nM; in [3] it was 708 nM; in series [4], 151 nM; in [5], more than 1000 nM; in series [6] it was 34 nM. Also, the IC50 in series [8] was 11 nM; in series [9], 204 nM; in series [10], more than 200000 nM; in series [11], more than 200000 nM.

For the molecule `CNC(=O)c1cc(Oc2ccc(NC(=O)Nc3ccc(Cl)c(C(F)(F)F)c3)c(F)c2)ccn1` [Regorafenib, regorafenib, reference compound], the IC50 in series [10] is more than 400000 nM; in [11], 10600 nM.
